Measured values from patent publication US20220009894A1, “1,2,3,4-TETRAHYDROQUINOXALINE DERIVATIVE, PREPARATION METHOD THEREFOR AND APPLICATION THEREOF” (Abbisko Therapeutics Co., Ltd., priority 2019, published 2022).

Experiments:
RORγt = biological target: T1, RORγt (Homo sapiens, UniProt P51449); test: RORγt cellular reporter gene detection assay; assay type: cell-based; conditions: 24 hrs; for EC50: HEK 293 cells co-transfected with pFN26A-RORγt-LBD and pG14.35, in presence of antagonist Ursolic acid, top concentration 50 μM; for Cellular Reporter Assay Amax: upper activation limit, HEK 293 cells, in presence of antagonist Ursolic acid;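 for Cellular Reporter Assay Amax: Ursolic Acid added as 5 µL of 20 µM medium per well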
T1 construct: The plasmid of pFN26A-RORγt-LBD and pG14.35 (Promega, Cat. No. E1370) were co-transfected into HEK 293 cells; expressed in transfected cells; host or cells: HEK 293 cells (Cat. No. GNHu18)
T1 sequence (P51449 269-508 limits assumed): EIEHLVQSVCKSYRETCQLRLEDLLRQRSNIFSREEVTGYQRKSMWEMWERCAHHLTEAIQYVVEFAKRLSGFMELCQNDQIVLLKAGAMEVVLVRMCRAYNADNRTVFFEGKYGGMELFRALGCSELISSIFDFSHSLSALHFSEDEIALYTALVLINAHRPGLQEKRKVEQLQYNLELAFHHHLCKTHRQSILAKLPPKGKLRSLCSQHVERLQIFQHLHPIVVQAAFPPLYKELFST
How it was run: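 HEK293 cells co-transfected with RORγt-LBD and luciferase reporter plasmids, treated with Ursolic acid antagonist plus compound in 4-fold dilutions from 50 μM for 24 h at 37° C. Firefly and Renilla luminescence read; EC50 and Amax from four-parameter fit.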

RORγt-LBD = biological target: T2, RORγt-LBD (Homo sapiens, UniProt P51449); test: Time-resolved fluorescence resonance energy-transfer assay (TR-FRET), co-activator peptide recruitment; assay type: biochemical; set-up: TR-FRET Biochemical Amax: unit not given here; conditions: for EC50: His-RORγt-LBD 30 nM, SRC peptide 500 nM, agonistic activity, averages of one or more measurements, read-out: TR-FRET Biochemical EC50/; for TR-FRET Biochemical Amax: upper activation limit, His-RORγt-LBD, SRC peptide
T2 sequence (P51449 269-508 limits assumed): T1 sequence (P51449 269-508 limits assumed)
How it was run: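 Eu-anti-His-labelled His-RORγt-LBD (30 nM final) recruits biotin-SRC co-activator peptide (500 nM final), detected via APC-streptavidin (5 nM) and Eu-anti-His (0.25 nM). Buffer was Tris/KCl/EDTA at pH 7.0 with 0.01% Triton X-100 and 1 mM DTT. Compounds were tested at 7 points in 5-fold dilutions. Plates were incubated overnight at 4 °C then 1 h at RT, and agonism was read as the 665/615 nm ratio.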

Row | Structure (SMILES) | EC50 (RORγt) | Cellular Reporter Assay Amax (RORγt) | EC50 (RORγt-LBD) | TR-FRET Biochemical Amax (RORγt-LBD)
1 | O=S(=O)(c1cccc(C(F)(F)F)c1)N1C[C@@H]2CN(C[C@@H](O)CO)CCN2c2ccc(-c3cc(F)cc(OC(F)F)c3)cc21 [Example 39, (R)-3-((S)-8-(3-(difluorome-thoxy)-5-fluorophenyl)-6-((3-(trifluoromethyl)phenyl)sulfonyl)-1,2,4,4a,5,6-hexahydro-3H-pyrazino[1,2-a]quinoxalin-3-yl) propane-1,2-diol] | 1240 nM | 2.2 | 33.6 nM | 0.58
2 | CCOC(=O)C(=O)N1CCN2c3ccc(/C=C(\C)c4c(F)cccc4Cl)cc3N(S(=O)(=O)c3cccc(C(F)(F)F)c3)C[C@@H]2C1 [Example 57, ethyl (S,E)-2-(8-(2-(2-chloro-6-fluorophenyl)prop-1-en-1-yl)-6-((3-(trifluoromethyl)phenyl)sulfonyl)-1,2,4,4a,5,6-hexahydro-3H-pyrazino[1,2-a]quinoxalin-3-yl)-2-oxoacetate] | 304 nM | 3.2 | 6.54 nM | 0.89
3 | C/C(=C\c1ccc2c(c1)N(S(=O)(=O)c1cccc(C(F)(F)F)c1)C[C@@H]1CN(C(N)=S)CCN21)c1c(F)cccc1Cl [Example 63, (S,E)-8-(2-(2-chloro-6-fluorophenyl)prop-1-en-1-yl)-6-((3-(trifluoromethyl)phenyl)sulfonyl)-1,2,4,4a,5,6-hexahydro-3H-pyrazino[1,2-a]quinoxaline-3-carbothioamide] | 308 nM | 5.0 | 23.5 nM | 0.89
4 | C/C(=C\c1ccc2c(c1)N(S(=O)(=O)c1cccc(C(F)(F)F)c1)C[C@@H]1CN(CC(=O)OCOC(=O)OC(C)C)CCN21)c1c(F)cccc1Cl [Example 49, ((isopropoxycarbonyl)oxy)methyl (S,E)-2-(8-(2-(2-chloro-6-fluorophenyl)prop-1-en-1-yl)-6-((3-(trifluoromethyl)phenyl)sulfonyl)-1,2,4,4a,5,6-hexahydro-3H-pyrazino[1,2-a]quinoxalin-3-yl)acetate] | 238 nM | 5.2 | 5.47 nM | 0.61
5 | C/C(=C\c1ccc2c(c1)N(S(=O)(=O)c1cccc(C(F)(F)F)c1)C[C@@H]1CN(CC(=O)OC(C)C)CCN21)c1c(F)cccc1Cl [Example 48, isopropyl (S,E)-2-(8-(2-(2-chloro-6-fluorophenyl)prop-1-en-1-yl)-6-((3-(trifluoromethyl)phe-nyl)sulfonyl)-1,2,4,4a,5,6-hexa-hydro-3H-pyrazino[1,2-a]quinox-alin-3-yl)acetate] | 283 nM | 1.9 | 10.7 nM | 0.67
6 | CC(C)(C)OC(=O)C(C)(C)N1CCN2c3ccc(-c4cc(F)cc(OC(F)F)c4)cc3N(S(=O)(=O)c3cccc(C(F)(F)F)c3)C[C@@H]2C1 [Example 51, tert-butyl (S)-2-(8-(3-(difluoromethoxy)-5-fluorophenyl)-6-((3-(trifluoromethyl)phenyl)sulfonyl)-1,2,4,4a,5,6-hexahydro-3H-pyrazino[1,2-a]quinoxalin-3-yl)-2-methylpropanoate] | 3940 nM | 1.5 | 48.7 nM | 0.77
7 | CC(C)(C(=O)O)N1CCN2c3ccc(-c4cc(F)cc(OC(F)F)c4)cc3N(S(=O)(=O)c3cccc(C(F)(F)F)c3)C[C@@H]2C1 [Example 54, (S)-2-(8-(3-(difluoromethoxy)-5-fluorophenyl)-6-((3-(trifluoromethyl)phenyl)sulfonyl)-1,2,4,4a,5,6-hexahydro-3H-pyrazino[1,2-a]quinoxalin-3-yl)-2-methylpropanoic acid] | 297 nM | 3.9 | 20.1 nM | 0.72
8 | CC(=O)N1CCN2c3ccc(C4=CC(C)(C)OC(C)(C)C4)cc3N(S(=O)(=O)c3cccc(C(F)(F)F)c3)C[C@@H]2C1 [Example 16, (S)-1-(8-(2,2,6,6-tetramethyl-yl-3,6-dihydro-2H-pyran-4-yl)-6-((3-(trifluoromethyl)phenyl)sulfonyl)-1,2,4,4a, 5,6-hexahydro-3H-pyrazino [1,2-a]quinoxalin-3-yl) ethan-1-one] | 59 nM | 2.0 | 9.52 nM | 0.78

More lines, now with the values ahead:

Row | EC50 (RORγt) | Cellular Reporter Assay Amax (RORγt) | EC50 (RORγt-LBD) | TR-FRET Biochemical Amax (RORγt-LBD) | Structure (SMILES)
9 | 158 nM | 3.3 | 19.7 nM | 0.87 | NS(=O)(=O)N1CCN2c3ccc(-c4cc(F)cc(OC(F)F)c4)cc3N(S(=O)(=O)c3cccc(C(F)(F)F)c3)C[C@@H]2C1 [Example 67, (R)-8-(3-(difluoromethoxy)-5-fluoro-phenyl)-6-((3-(trifluorometh-yl)phenyl)sulfonyl)-1,2,4,4a,5,6-hexahydro-3H-pyrazino[1,2-a]quinoxaline-3-sulfonamide]
10 | 2090 nM | 1.2 | 31.4 nM | 0.43 | N#Cc1ccc(F)c(-c2ccc3c(c2)N(S(=O)(=O)c2cccc(C(F)(F)F)c2)C[C@@H]2CN(CC(=O)O)CCN32)c1 [Example 96, (S)-2-(8-(5-cyano-2-fluorophe-nyl)-6-((3-(trifluoromethyl)phe-nyl)sulfonyl)-1,2,4,4a,5,6-hexa-hydro-3H-pyrazino[1,2-a]quin-oxalin-3-yl)acetic acid]
11 | 394 nM | 4.5 | 28.1 nM | 1.09 | C/C(=C\c1ccc2c(c1)N(S(=O)(=O)c1cccc(C(F)(F)F)c1)C[C@@H]1CN(CC(C)(C)O)CCN21)c1c(F)cccc1Cl [Example 82, (S,E)-1-(8-(2-(2-chloro-6-fluorophenyl)prop-1-en-1-yl)-6-((3-(trifluoromethyl)phenyl)sulfonyl)-1,2,4,4a,5,6-hexahydro-3H-pyrazino[1,2-a]quinoxalin-3-yl)-2-methylpropan-2-ol]
12 | 600 nM | 5.8 | 44.4 nM | 1.05 | C/C(=C\c1ccc2c(c1)N(S(=O)(=O)c1cccc(C(F)(F)F)c1)C[C@@H]1CN(C(CO)CO)CCN21)c1c(F)cccc1Cl [Example 69, (S,E)-2-(8-(2-(2-chloro-6-fluorophenyl)prop-1-en-1-yl)-6-((3-(trifluoromethyl)phenyl)sulfonyl)-1,2,4,4a,5,6-hexahydro-3H-pyrazino[1,2-a]quinoxalin-3-yl)propane-1,3-diol]
13 | 643 nM | 3.0 | 98.3 nM | 1.31 | C[C@@]1(O)CCN2c3ccc(-c4cc(F)cc(OC(F)F)c4)cc3N(S(=O)(=O)c3cccc(C(F)(F)F)c3)C[C@@H]2C1 [Example 107, (6aS,8R)-3-(3-(difluoromethoxy)-5-fluorophenyl)-8-methyl-5-((3-(trifluoromethyl)phenyl)sulfonyl)-6,6a,7,8,9,10-hexahydro-5H-pyrido[1,2-a]quinoxalin-8-ol]
14 | 214 nM | 2.8 | 12.1 nM | 0.76 | CS(=O)(=O)COC1CCN2c3ccc(-c4cc(F)cc(OC(F)F)c4)cc3N(S(=O)(=O)c3cccc(C(F)(F)F)c3)C[C@@H]2C1 (stereo partly drawn) [Example 110, (6aS)-3-(3-(difluoromethoxy)-5-fluorophenyl)-8-((methylsulfonyl)methoxy)-5-((3-(trifluoromethyl)phenyl)sulfonyl)-6,6a,7,8,9,10-hexahydro-5H-pyrido[1,2-a]quinoxaline]
15 | 1300 nM | 2.7 | 41.1 nM | 0.49 | O=S(=O)(c1cccc(C(F)(F)F)c1)N1C[C@@H]2CC(F)CCN2c2ccc(-c3cc(F)cc(OC(F)F)c3)cc21 (stereo partly drawn) [Example 103, (6aS)-3-(3-(difluoromethoxy)-5-fluorophenyl)-8-fluoro-5-((3-(trifluoromethyl)phenyl)sulfonyl)-6,6a,7,8,9,10-hexahydro-5H-pyrido[1,2-a]quinoxaline]
16 | 564 nM | 3.2 | 18.9 nM | 0.64 | CS(=O)(=O)CCOC1CCN2c3ccc(-c4cc(F)cc(OC(F)F)c4)cc3N(S(=O)(=O)c3cccc(C(F)(F)F)c3)C[C@@H]2C1 (stereo partly drawn) [Example 111, (6aS)-3-(3-(difluoromethoxy)-5-fluorophenyl)-8-((methylsulfonyl)ethoxy)-5-((3-(trifluoromethyl)phenyl)sulfonyl)-6,6a,7,8,9,10-hexahydro-5H-pyrido[1,2-a]quinoxaline]
